Key:
Test in all cases: relative viability (nuclei count vs DMSO), 5 days (fraction); higher = more cells survive
TPCA-1 + Trametinib = compound: C1=CC(=CC=C1C2=CC(=C(S2)NC(=O)N)C(=O)N)F [TPCA-1] + CC(=O)Nc1cccc(-n2c(=O)n(C3CC3)c(=O)c3c(Nc4ccc(I)cc4F)n(C)c(=O)c(C)c32)c1 [Trametinib] (partner 0.02 µM)
Method in brief: (§1)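 Relative viability equals treated-well nuclei counts divided by vehicle-well nuclei counts. Counts came from 4× images of lung cancer cell lines grown in 1536-well plates for 5 days after pin-tool dosing on the day after seeding. Dosing used one drug alone or a fixed anchor-drug dose plus five library-drug doses (not always all listed) in √10 steps, and values are medians of duplicate plates.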

TPCA-1 + Alpelisib = compound: C1=CC(=CC=C1C2=CC(=C(S2)NC(=O)N)C(=O)N)F [TPCA-1] + Cc1nc(NC(=O)N2CCC[C@H]2C(N)=O)sc1-c1ccnc(C(C)(C)C(F)(F)F)c1 [Alpelisib] (partner 2 µM)
Method in brief: as §1

TPCA-1 + Palbociclib = compound: C1=CC(=CC=C1C2=CC(=C(S2)NC(=O)N)C(=O)N)F [TPCA-1] + CC(=O)c1c(C)c2cnc(Nc3ccc(N4CCNCC4)cn3)nc2n(C2CCCC2)c1=O [Palbociclib] (partner 0.5 µM)
Method in brief: as §1

TPCA-1 + Tozasertib = compound: C1=CC(=CC=C1C2=CC(=C(S2)NC(=O)N)C(=O)N)F [TPCA-1] + Cc1cc(Nc2cc(N3CCN(C)CC3)nc(Sc3ccc(NC(=O)C4CC4)cc3)n2)n[nH]1 [Tozasertib] (partner 0.1 µM)
Method in brief: as §1

**Q.** With UMC-11 as the cell line, how does the relative viability (TPCA-1 + Trametinib; first compound 0.04 µM) read?
**A.** 0.648

**Q.** And the relative viability (TPCA-1 + Trametinib; first compound 0.1265 µM)?
**A.** 0.612

**Q.** And the relative viability (TPCA-1 + Trametinib; first compound 0.4 µM)?
**A.** 0.804

**Q.** And the relative viability (TPCA-1 + Trametinib; first compound 1.265 µM)?
**A.** 0.831

**Q.** What about the relative viability (TPCA-1 + Trametinib; first compound 4 µM) of the same cell line?
**A.** 0.152

**Q.** And the relative viability (TPCA-1 + Alpelisib; first compound 0.04 µM)?
**A.** 0.988

**Q.** And the relative viability (TPCA-1 + Alpelisib; first compound 0.1265 µM)?
**A.** 0.946

**Q.** And the relative viability (TPCA-1 + Alpelisib; first compound 0.4 µM)?
**A.** 1.05

**Q.** And the relative viability (TPCA-1 + Alpelisib; first compound 1.265 µM)?
**A.** 0.96

**Q.** What about the relative viability (TPCA-1 + Alpelisib; first compound 4 µM) of the same cell line?
**A.** 0.731

**Q.** And the relative viability (TPCA-1 + Palbociclib; first compound 0.04 µM)?
**A.** 0.354

**Q.** And the relative viability (TPCA-1 + Palbociclib; first compound 0.1265 µM)?
**A.** 0.316

**Q.** What about the relative viability (TPCA-1 + Palbociclib; first compound 0.4 µM) of the same cell line?
**A.** 0.299

**Q.** What about the relative viability (TPCA-1 + Palbociclib; first compound 1.265 µM) of the same cell line?
**A.** 0.408

**Q.** And the relative viability (TPCA-1 + Palbociclib; first compound 4 µM)?
**A.** 0.289

**Q.** And the relative viability (TPCA-1 + Tozasertib; first compound 0.04 µM)?
**A.** 0.208

**Q.** What about the relative viability (TPCA-1 + Tozasertib; first compound 0.1265 µM) of the same cell line?
**A.** 0.207

**Q.** And the relative viability (TPCA-1 + Tozasertib; first compound 0.4 µM)?
**A.** 0.216

**Q.** What about the relative viability (TPCA-1 + Tozasertib; first compound 1.265 µM) of the same cell line?
**A.** 0.178

**Q.** And the relative viability (TPCA-1 + Tozasertib; first compound 4 µM)?
**A.** 0.187

— the supplement of paper PMC10307832
